Laboratory results reported in paper PMC11059541 (Tuberculosis (Edinburgh, Scotland), 2011).

Legend:
[1] = target: MtMetAP1a (Mycobacterium tuberculosis, UniProt P9WK21); test: MetAP enzyme inhibition assay; assay type: biochemical; settings: for selectivity for both MtMetAPs over human MetAPs: MtMetAP1a and MtMetAP1c relative to HsMetAP1 and HsMetAP2, from IC50 values
[2] = target: MtMetAP1c (Mycobacterium tuberculosis, UniProt P9WK19); test: MetAP enzyme inhibition assay; assay type: biochemical
Chain of MtMetAP1c (P9WK19 whole entry): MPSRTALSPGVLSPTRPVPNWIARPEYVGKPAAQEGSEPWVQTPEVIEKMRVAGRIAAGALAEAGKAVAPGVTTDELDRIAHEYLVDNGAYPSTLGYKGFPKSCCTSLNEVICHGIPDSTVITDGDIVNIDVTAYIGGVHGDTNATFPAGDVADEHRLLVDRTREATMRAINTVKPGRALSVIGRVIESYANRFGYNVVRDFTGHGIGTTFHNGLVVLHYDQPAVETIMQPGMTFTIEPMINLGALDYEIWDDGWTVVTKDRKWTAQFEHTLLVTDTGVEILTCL

[3] = system: M. tuberculosis H37Rv; test: Minimum Inhibitory Concentration in replicating M. tuberculosis; assay type: cell-based, Mycobacterium tuberculosis; settings: ratio of M.I.C. values
[4] = system: aged non-growing M. tuberculosis H37Ra; test: Activity on aged non-growing M. tuberculosis; settings: 2 month old H37Ra culture, acid 7H9 pH5.5, 1% oxygen

Chain of MtMetAP1a (P9WK21 whole entry): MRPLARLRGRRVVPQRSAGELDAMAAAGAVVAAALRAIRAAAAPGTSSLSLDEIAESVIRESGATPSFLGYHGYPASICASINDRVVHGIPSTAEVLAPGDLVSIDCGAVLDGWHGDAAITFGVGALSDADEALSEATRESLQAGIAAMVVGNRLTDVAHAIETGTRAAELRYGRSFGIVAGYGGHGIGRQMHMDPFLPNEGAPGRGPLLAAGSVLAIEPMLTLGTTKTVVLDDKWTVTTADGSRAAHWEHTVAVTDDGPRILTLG

Row | Compound | IC50 [1] | selectivity for both MtMetAPs over human MetAPs [1] | IC50 [2] | potency in replicating M. tuberculosis culture relative to CQ [3] | M.I.C. Aged non-growing M. tuberculosis [4]
1 | Oc1c(Br)cc(Cl)c2cccnc12 [CLBQ14] | 5.44 µM | greater than 19 folds | 4.92 µM | two-fold | 0.65 to 1.62 µg/mL
2 | Oc1c(I)cc(Cl)c2cccnc12 [Clioquinol (CQ), clioquinol, reference compound] | 9.25 µM | less than 10 folds | 11.2 µM | – | –
